From patent US20040082602A1, “Substituted thiophene carboxamide compounds for the treatment of inflammation” (priority 2002, published 2004)
Structures can show the parent of a compound that is named as a salt.

Molecular target: T1, IKK-2 (Homo sapiens, UniProt O14920)
T1 construct: made in house; host or cells: baculovirus (pFastBac) in insect cells; SF9
T1 sequence (O14920 1-756): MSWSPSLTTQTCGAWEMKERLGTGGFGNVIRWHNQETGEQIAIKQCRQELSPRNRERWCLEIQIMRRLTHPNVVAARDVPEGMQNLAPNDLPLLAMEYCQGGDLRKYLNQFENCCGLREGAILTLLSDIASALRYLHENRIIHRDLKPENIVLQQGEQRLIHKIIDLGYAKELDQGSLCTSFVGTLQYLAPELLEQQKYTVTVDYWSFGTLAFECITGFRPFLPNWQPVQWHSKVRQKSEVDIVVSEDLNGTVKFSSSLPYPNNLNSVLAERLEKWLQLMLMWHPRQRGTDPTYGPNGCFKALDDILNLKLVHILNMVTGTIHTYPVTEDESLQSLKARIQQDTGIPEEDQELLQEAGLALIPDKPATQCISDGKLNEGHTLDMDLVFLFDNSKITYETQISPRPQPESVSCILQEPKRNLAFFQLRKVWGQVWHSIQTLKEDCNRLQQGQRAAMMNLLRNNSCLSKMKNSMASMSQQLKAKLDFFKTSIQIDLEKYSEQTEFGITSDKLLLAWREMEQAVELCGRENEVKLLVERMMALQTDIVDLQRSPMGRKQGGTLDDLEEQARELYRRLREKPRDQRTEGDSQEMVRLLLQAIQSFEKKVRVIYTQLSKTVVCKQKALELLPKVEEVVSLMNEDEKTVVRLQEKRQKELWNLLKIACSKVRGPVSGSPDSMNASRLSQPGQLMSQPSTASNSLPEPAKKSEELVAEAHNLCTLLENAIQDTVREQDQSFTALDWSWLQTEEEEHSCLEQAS
Experiment: IKK-2 Resin assay (IKKβ Resin Enzyme Assay)
Assay type: biochemical
Settings: rhIKK2 homodimer, 5 μM biotinylated IκBα peptide, 1 μM ATP, 25° C., 30 min
Text: cDNAs of human IKK1 and IKK2 were amplified by reverse transcriptase-polymerase chain reaction from human placental RNA (Clonetech). hIKK1 was subcloned into pFastBac HTa (Life Technologies) and expressed as N-terminal His6-tagged fusion protein. The hIKK2 cDNA was amplified using a reverse oligonucleotide primer which incorporated the peptide sequence for a FLAG-epitope tag at the C-terminus of the IKK2 coding region (DYKDDDDKD). The hIKK2:FLAG cDNA was subcloned into the baculovirus vector pFastBac. The rhIKK2 ([…]) mutant was constructed in the same vector used for wild type rhIKK2 using a QuikChange™ mutagenesis kit (Stratagene). Viral stocks of each construct were used to infect insect cells grown in 40L suspension culture. […] Cell lysates were stored at −80° C. until purification of the recombinant proteins was undertaken as described below.
A 10-liter culture of baculovirus-expressing IKK2 tagged with FLAG peptide was centrifuged and the cell pellet (MOI=0.1 and 1=72 hrs) was re-suspended in buffer A. These cells were microfluidized, and centrifuged at 100,000×g for 45 min. Supernatant was passed over a G-25 column equilibrated with Buffer A. Protein peak was collected and incubated with anti-FLAG affinity resin on a rotator overnight in buffer B. The resin was washed in batch with 10-15 bed volumes of buffer C. Washed resin was poured into a column and rhIKK2 homodimer was eluted using 5 bed volumes of buffer B containing FLAG peptide. 5 mM DTT, 0.1% NP-40 and BSA (concentrated to 0.1% in final amount) was added to the eluted enzyme before concentrating in using an Amicon membrane with a molecular weight cut-off of 30 kDa. Enzyme was aliquoted and stored at −80° C.
IKKβ kinase activity was measured using a biotinylated IκBα peptide (Gly-LeuLys-Lys-Glu-Arg-Leu-Leu-Asp-Asp-Arg-His-Asp-Ser32-Gly-Leu-Asp-Ser36-Met Lys-Asp-Glu-Glu) (American Peptide Co.). 20 ul of the standard reaction mixture contained 5 μM biotinylated IκBα peptide, 0.1 μCi/reaction [γ^33P] ATP (Amersham) (about 1×10^5 cpm), 1 μM ATP (Sigma), 1 mM DTT (Sigma), 2 mM MgCl2 (Sigma), 2 mM MnCl2 (Sigma), 10 mM NaF (Sigma), 25 mM Hepes (Sigma) buffer, pH 7.6 and 20 μl enzyme solution and 10 ul inhibitor in a final volume of […]. After incubation at 25° C. for 30 min, 150 μl resin (Dowex anion-exchange resin AGIX8 200-400 mesh) in 900 mM formate, pH 3.0 was added to each well to stop the reaction. Resin was allowed to settle for one hour and 50 ul of supernatant was removed to a Micolite-2 flat bottom plate (Dynex). 150 μl of scintillation fluid (Microscint 40) (Packard) was added to each well. Incorporation of [γ-^33P] ATP was measured using a Top-Count NXT (Packard).

Row | IC50 | Compound
1 | 10 to 20 µM | NC(=O)c1sc2c(c1N)CCc1ccccc1-2 [Example 1, 3-amino-4,5-dihydronaphtho[1,2-b]thiophene-2-carboxamide]
2 | 1 to 10 µM | COc1ccc2c(c1)-c1sc(C(N)=O)c(N)c1CC2 [Example 2, 3-amino-8-methoxy-4,5-dihydronaphtho[1,2-b]thiophene-2-carboxamide]
3 | 1 to 10 µM | NCCNc1c(C(N)=O)sc2c1CCc1ccccc1-2 [Example 3, 3-[(2-aminoethyl)amino]-4,5-dihydronaphtho[1,2-b]thiophene-2-carboxamide hydrobromide]
4 | 10 to 20 µM | NCCCNc1c(C(N)=O)sc2c1CCc1ccccc1-2 [Example 4, 3-[(3-aminopropyl)amino]-4,5-dihydronaphtho[1,2-b]thiophene-2-carboxamide hydrochloride]
5 | 10 to 20 µM | NC(=O)Nc1c(C(N)=O)sc2c1CCc1ccccc1-2 [Example 5, 3-[(aminocarbonyl)amino]4,5-dihydronaphtho[1,2-b]thiophene-2-carboxamide]
6 | 10 to 20 µM | N#Cc1c(N)sc2c1CCc1ccccc1-2 [Example 6, 2-amino-4,5-dihydronaphtho[1,2-b]thiophene-3-carbonitrile]
7 | 10 to 20 µM | CC(=O)Nc1sc2c(c1C(N)=O)CCc1ccccc1-2 [Example 7, 2-(acetylamino)-4,5-dihydronaphtho[1,2-b]thiophene-3-carboxamide]
8 | ≤ 1 µM | NC(=O)Nc1sc2c(c1C(N)=O)CCc1ccccc1-2 [Example 8, 2-[(aminocarbonyl)amino]-4,5-dihydronaphtho[1,2-b]thiophene-3-carboxamide]
